Measurements: PMC7641324, “Small-molecule sensitization of RecBCD helicase–nuclease to a Chi hotspot-activated state” (Nucleic Acids Research, 2020)

Molecular target: T1, RecBCD enzyme (RecB subunit) (Escherichia coli, UniProt P08394)
T1 construct: RecBCD holoenzyme (330 kDa, three subunits); with RecC and RecD
Experiment: RecBCD nuclease assay with [3H] phage T7 DNA, […] ATP; unaffected by Triton X-100
Type: biochemical

T1 sequence (P08394 2-1180): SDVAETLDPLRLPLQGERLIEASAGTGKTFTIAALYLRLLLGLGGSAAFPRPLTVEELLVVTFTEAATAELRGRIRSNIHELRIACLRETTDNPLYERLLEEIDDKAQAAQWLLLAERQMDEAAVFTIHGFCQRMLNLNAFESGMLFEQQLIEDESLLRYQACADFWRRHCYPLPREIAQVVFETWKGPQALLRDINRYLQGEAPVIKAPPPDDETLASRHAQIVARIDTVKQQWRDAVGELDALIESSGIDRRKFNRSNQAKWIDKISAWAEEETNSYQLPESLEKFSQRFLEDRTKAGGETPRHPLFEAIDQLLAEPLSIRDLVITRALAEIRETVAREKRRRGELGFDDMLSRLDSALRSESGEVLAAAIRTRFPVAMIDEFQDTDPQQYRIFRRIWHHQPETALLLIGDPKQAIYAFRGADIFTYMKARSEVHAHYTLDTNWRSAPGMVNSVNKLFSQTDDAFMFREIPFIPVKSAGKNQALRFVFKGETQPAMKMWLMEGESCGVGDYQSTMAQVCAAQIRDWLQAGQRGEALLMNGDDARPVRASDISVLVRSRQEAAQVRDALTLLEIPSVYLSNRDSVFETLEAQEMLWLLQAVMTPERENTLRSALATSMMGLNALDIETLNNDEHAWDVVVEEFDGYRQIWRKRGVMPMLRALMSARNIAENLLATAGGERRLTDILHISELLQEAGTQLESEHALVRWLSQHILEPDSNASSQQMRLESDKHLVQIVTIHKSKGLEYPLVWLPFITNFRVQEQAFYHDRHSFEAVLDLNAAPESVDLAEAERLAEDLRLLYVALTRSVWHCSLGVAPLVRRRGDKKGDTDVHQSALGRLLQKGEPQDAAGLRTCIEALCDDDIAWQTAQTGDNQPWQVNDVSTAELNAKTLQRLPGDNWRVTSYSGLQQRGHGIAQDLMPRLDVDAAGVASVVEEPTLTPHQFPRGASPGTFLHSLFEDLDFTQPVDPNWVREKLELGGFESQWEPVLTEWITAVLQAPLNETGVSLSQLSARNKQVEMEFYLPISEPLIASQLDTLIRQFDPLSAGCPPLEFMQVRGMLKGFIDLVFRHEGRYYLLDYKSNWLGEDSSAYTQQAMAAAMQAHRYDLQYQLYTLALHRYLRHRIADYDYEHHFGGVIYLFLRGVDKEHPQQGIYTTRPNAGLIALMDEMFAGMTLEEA
T1 sequence (P07648 whole entry, further chain): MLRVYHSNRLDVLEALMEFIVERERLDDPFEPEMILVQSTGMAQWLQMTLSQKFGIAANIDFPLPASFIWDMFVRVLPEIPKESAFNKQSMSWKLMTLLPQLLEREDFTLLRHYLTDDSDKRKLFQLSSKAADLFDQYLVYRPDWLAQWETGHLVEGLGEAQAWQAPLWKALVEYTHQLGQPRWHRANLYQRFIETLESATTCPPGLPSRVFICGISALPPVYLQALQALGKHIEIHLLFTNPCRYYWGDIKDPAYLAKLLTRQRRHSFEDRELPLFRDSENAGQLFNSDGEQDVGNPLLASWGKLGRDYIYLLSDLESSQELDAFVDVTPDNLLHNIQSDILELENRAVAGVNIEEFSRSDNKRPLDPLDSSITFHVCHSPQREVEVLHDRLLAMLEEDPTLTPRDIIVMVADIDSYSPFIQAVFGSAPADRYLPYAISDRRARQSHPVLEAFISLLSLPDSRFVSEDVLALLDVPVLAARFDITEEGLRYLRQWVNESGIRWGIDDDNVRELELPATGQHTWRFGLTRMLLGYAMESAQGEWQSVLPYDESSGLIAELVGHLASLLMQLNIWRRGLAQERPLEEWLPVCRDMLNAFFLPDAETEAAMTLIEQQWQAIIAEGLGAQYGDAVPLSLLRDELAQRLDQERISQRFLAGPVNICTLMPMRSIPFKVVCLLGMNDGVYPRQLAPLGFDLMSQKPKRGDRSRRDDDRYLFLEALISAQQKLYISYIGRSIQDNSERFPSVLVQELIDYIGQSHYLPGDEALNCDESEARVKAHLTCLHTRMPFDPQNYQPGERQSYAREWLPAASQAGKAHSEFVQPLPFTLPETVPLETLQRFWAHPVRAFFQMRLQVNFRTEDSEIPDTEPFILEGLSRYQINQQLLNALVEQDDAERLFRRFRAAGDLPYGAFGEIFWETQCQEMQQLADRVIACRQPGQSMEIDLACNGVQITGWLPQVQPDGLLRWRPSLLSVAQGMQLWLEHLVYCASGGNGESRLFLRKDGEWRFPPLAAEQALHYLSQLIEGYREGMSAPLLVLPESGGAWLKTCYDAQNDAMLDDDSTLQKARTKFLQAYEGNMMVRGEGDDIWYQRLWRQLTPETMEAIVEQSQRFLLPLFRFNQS
T1 sequence (P04993 whole entry, further chain): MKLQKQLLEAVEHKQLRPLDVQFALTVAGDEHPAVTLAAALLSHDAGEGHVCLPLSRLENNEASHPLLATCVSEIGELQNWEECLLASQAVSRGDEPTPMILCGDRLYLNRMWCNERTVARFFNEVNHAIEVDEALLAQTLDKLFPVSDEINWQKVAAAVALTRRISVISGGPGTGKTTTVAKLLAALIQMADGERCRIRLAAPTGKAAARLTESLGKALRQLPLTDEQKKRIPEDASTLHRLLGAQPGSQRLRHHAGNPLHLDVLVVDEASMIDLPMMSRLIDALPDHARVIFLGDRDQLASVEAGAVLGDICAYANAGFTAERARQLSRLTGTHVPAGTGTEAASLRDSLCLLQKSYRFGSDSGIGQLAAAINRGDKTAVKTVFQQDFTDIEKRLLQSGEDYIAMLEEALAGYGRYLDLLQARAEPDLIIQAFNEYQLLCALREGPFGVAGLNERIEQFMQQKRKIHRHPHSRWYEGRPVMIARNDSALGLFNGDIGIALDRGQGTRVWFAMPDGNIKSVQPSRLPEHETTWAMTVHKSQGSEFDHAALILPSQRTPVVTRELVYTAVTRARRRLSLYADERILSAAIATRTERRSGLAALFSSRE

CCC(Sc1nnc2n(CCOc3ccccc3Cl)c3ccccc3n12)C(=O)O (stereo not shown) [NSAC1003, 2-({7-[2-(2-chlorophenoxy)ethyl]-2,4,5,7-tetraazatricyclo[6.4.0.0^2,^6]dodeca-1(8),3,5,9,11-pentaen-3-yl}sulfanyl)butanoic acid]
IC50: 6.3 ± 0.3 µM
